Laboratory results taken from article PMC9979702 (Bioorganic & Medicinal Chemistry Letters, 2023).

What was measured:
SARS-CoV-2 = assay type: cell-based; conditions: Vero cells
hERG = hERG (Homo sapiens, UniProt Q12809); conditions: even at 100 µM
Chain of hERG (Q12809 whole entry): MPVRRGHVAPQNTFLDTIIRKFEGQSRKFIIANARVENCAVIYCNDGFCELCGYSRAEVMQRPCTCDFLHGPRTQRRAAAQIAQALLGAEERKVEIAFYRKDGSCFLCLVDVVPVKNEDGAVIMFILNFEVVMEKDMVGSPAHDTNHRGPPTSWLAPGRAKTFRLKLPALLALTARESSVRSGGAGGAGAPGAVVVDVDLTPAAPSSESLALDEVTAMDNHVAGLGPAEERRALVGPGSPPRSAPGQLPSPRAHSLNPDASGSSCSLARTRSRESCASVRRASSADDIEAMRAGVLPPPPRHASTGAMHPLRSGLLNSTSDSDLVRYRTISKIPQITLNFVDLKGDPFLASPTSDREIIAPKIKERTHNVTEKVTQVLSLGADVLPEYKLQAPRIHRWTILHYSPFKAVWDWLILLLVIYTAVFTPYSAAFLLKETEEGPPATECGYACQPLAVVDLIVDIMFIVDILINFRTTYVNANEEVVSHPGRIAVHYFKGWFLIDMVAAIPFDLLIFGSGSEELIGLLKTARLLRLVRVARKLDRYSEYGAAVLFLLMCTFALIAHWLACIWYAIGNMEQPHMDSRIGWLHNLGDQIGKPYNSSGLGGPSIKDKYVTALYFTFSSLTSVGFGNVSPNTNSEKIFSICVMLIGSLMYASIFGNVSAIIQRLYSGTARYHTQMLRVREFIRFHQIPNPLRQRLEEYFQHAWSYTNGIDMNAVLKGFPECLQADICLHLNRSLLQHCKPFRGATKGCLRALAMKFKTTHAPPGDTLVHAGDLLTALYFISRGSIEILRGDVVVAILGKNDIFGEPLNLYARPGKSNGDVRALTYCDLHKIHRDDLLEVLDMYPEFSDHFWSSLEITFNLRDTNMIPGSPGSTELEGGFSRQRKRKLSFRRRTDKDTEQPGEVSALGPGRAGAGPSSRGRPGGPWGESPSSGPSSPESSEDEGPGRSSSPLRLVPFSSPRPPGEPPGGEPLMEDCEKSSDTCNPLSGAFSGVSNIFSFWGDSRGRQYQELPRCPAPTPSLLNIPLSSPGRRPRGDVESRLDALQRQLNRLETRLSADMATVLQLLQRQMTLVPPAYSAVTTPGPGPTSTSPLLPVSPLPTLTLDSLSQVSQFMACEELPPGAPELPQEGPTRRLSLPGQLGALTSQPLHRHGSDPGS

## CN(C)CCCNc1[nH]c2cc(Cl)ccc2c(=O)c1C(=O)O [Compound 7a, 7-chloro-2-((3-(dimethylamino)propyl)amino)-4-oxo-1,4-dihydroquinoline-3-carboxylic acid]
SARS-CoV-2
  antiviral activity against SARS-CoV-2 (in words): no activity

## O=C(O)c1c(Nc2cccc(F)c2)[nH]c2cc(Cl)ccc2c1=O [Compound 9b, 7-chloro-2-((3-fluorophenyl)amino)-4-oxo-1,4-dihydroquinoline-3-carboxylic acid]
hERG
  hERG binding (in words): no hERG binding was detected

## O=C(O)c1c(Nc2cccc(F)c2)[nH]c2cc(F)c(F)cc2c1=O [Compound 9f, 6,7-difluoro-2-((3-fluorophenyl)amino)-4-oxo-1,4-dihydroquinoline-3-carboxylic acid]
SARS-CoV-2
  antiviral activity against SARS-CoV-2 (in words): had antiviral activity

## O=c1cc(Nc2cccc(F)c2)[nH]c2cc(F)c(F)cc12 [Compound 10, 6,7-difluoro-2-((3-fluorophenyl)amino)quinolin-4(1H)-one]
SARS-CoV-2
  antiviral activity against SARS-CoV-2 (in words): no activity
